{"source": "patent US20030138946A1", "key": {"[1]": {"tested_on": "CD8^+ 2C lymph node cells", "assay": "IL-2 production by CD8+ 2C lymph node cells (CTLL indicator line 3HTdR)", "type": "cell-based, mouse", "details": "peptide 10 μM", "description": "(§1) Using a standard tissue culture system (Cai, Z. and Sprent, J. (1994) J. Exp. Med. 179: 2005-2015), doses of 5×10^4 purified CD8^+ 2C lymph node (LN) cells were cultured at 37° C. with doses of 3×10^5 transfected fly cells ±peptides (10 μM final concentration). Peptides were synthesized by R. W. Johnson Pharmaceutical Research Institute (Sykulev, et al. (1994) Immunity 1: 15-22. Proliferative responses were measured by adding ^3HTdR (1 μCi/well) 8 hours prior to harvest. IL-2 production was measured by removing supernatants from the cultures at 48 hours and adding 50 μl supernatant to an IL-2 responsive indicator cell line (CTLL); proliferation of the indicator line was measured by addition of ^3HTdR. The data shown in Table 2 are the means of triplicate cultures. The transfected Drosophila S2 cells die rapidly at 37° C. and fail to incorporate ^3HTdR at this temperature."}, "[2]": {"tested_on": "CD8^+ 2C cells", "assay": "CD69 and CD25 expression on CD8+ 2C cells stimulated with transfected Drosophila cells plus peptide", "type": "cell-based, mouse", "details": "Drosophila cells expressing L^d alone; peptide 10 μM, 12 hours", "description": "TCR stimulation elicited a complex pattern of intracellular events which lead to early up-regulation of CD69 and CD25 (IL-2 receptor or IL-2R) on the cell surface. These changes are apparent within a few hours of stimulation and are followed by cytokine synthesis and cell proliferation. Drosophila cells were transfected with genes for L^d, L^d and B7.1 (L^d.B7), L^d and ICAM-1 (L^d.ICAM) or L^d, B7.1 and ICAM-1 (L^d.B7.1CAM). […] Purified CD8^+ 2C cells were incubated with various Drosophila cells plus a peptide (either p2Ca or QL9, 10 μM) in bulk (2 ml) culture for 12 hours and then stained for CD69 or CD25. Either p2Ca or QL9 presented by Drosophila cells transfected with L^d.B7, L^d.ICAM or L^d.B7.1CAM were effective in stimulating the up-regulation of CD69 and CD25."}, "[3]": {"tested_on": "CD8^+ 2C cells", "assay": "Dose-response of day 3 proliferation of CD8+ 2C cells to peptides on transfected Drosophila APC", "type": "cell-based, mouse", "details": "for proliferative response: 1 nM peptide", "description": "Responses to p2Ca (above) and QL9 (below) were measured by culturing 5×10^4 purified CD8^+ 2C cells with 2×10^5 Drosophila cells in the presence or absence of the indicated concentrations of peptides for 3 days. [^3H] TdR was added during the last 8 hours of culture; rIL-2 was added at a final concentration of 20 units/ml. The data are the mean of triplicate cultures. When supplemented with exogenous IL-2, however, both peptides stimulated significant proliferative responses at high doses (10 μM). The proliferative responses elicited by QL9 were far stronger than for p2Ca (note the large difference between the scales of x-axes of the upper and the lower panel).\nDose-response relationships for proliferation on day 3 elicited by Drosophila cells transfected with L^d.B7.1CAM and presenting p2Ca peptide were compared to those elicited by Drosophila cells transfected with L^d.B7, L^d.ICAM or L^d.B7.1CAM presenting QL9 peptide. Drosophila APC (2×10^5 cells) were cultured with 5×10^4 CD8^+ 2C cells for three days in the presence or absence of peptides. [^3H] TdR was added during the last 8 hours of culture; no IL-2 was added to the cultures."}, "[4]": {"tested_on": "CD8^+ 2C lymph node cells", "assay": "Primary proliferative response of CD8+ 2C lymph node cells to peptides presented by transfected fly cells (3HTdR)", "type": "cell-based, mouse", "details": "peptide 10 μM", "description": "as §1"}, "[5]": {"tested_on": "normal B6 CD8^+ cells", "assay": "Proliferation of normal (nontransgenic) B6 CD8+ cells to peptide on L^d.B7.ICAM Drosophila APC", "type": "cell-based, mouse", "details": "10 μM peptide, L^d.B7.1CAM APC, 1×10^6 responder cells, no added cytokines", "description": "The capacity of L^d.B7.1CAM Drosophila cells to induce a strong primary response of 2C TCR transgenic CD8^+ cells raised the question whether Drosophila cells could act as antigen-presenting cells for normal (nontransgenic) CD8^+ cells. Since the 2C mice were on a B6 (H-2b) background, the response of normal B6 CD8^+ cells was tested. Graded doses of CD8^+ cells from normal B6 mice were cultured with 10 μM QL9 peptide presented by L^d.B7.1CAM Drosophila antigen-presenting cells, i.e. a situation where a diverse repertoire of T-cells was exposed to only a single alloantigen (L^d+QL9) but at high concentration. As shown in FIG. 19 (left), presentation of QL9 by L^d.B7.1CAM antigen-presenting cells was indeed immunogenic for normal B6 CD8^+ cells and led to appreciable proliferative responses on Day 3 (80,000 cpm) with large doses of responder cells (1×10^6) in the absence of added cytokines; responses to an unrelated peptide, MCMV, were much lower (though significant) and no response occurred in the absence of peptide. As expected, the response of normal B6 CD8+cells to QL9 plus L^d.B7.1CAM antigen-presenting cells was substantially lower than with normal B10.D2 spleen cells as antigen-presenting cells (where the allostimulus was provided by a multiplicity of self peptides bound to L^d, K^d and D^d, but at low concentration) (FIG. 19, right. Note the difference in the Y axis scales)."}, "[6]": {"tested_on": "soluble 2C TCR molecules", "details": "peptide complexed to L^d; association constant; cited from earlier work"}, "[7]": {"tested_on": "RMA.S cells (target cells) expressing L^d", "type": "cell-based, mouse"}, "[8]": {"tested_on": "2C+ T-cells", "assay": "Enrichment of 2C+ T-cells from a 1/99 mixture with C57BL/6 CD8+ cells (1B2 staining, flow cytofluorometry)", "type": "cell-based, mouse", "description": "2C+ T-cells were mixed with total CD8^+ cells from C57BL/6 mice at a 1/99 ratio and cells were cultured with immobilized L^d and anti-CD28 antibody in the presence of peptide QL9. IL-2 was added at day 2 of culture, and subsequently every other day. Cell activation and proliferation was noted, as evidenced by the formation of clumps, presence of enlarged cells that progressively spread in the well. At day 12 of culture, cells were harvested and percentage of cells expressing the 2C T-cell receptor was assessed by staining with the anticlonotypic antibody 1B2 and analysis by flow cytofluorometry: 43% of the cells cultured initially in the presence of peptide QL9 were 2C+, (FIG. 22) whereas 49% of the cells expressed 2C after stimulation with peptide p2Ca (FIG. 23), and 22% with peptide SL9 (FIG. 24). […] Enrichment was observed even with SL9, a peptide that makes a low affinity complex with the 2C T-cell receptor. This method thus can specifically activate and enrich a small subpopulation of antigen specific T-cells out of a heterogenous mixture of T-cells."}}}
{"substance": "Gln-Leu-Ser-Pro-Phe-Pro-Phe-Asp-Leu [QL9]", "values": [{"measurement": "IL-2 Production (Day 2) ^3HTdR incorporation, fly cells expressing L^d", "setting": "[1]; APC L^d", "value": 0.1, "unit": "cpm × 10^3"}, {"measurement": "IL-2 Production (Day 2) ^3HTdR incorporation, fly cells expressing L^d + B7.1", "setting": "[1]; APC L^d + B7.1", "value": 0.4, "unit": "cpm × 10^3"}, {"measurement": "IL-2 Production (Day 2) ^3HTdR incorporation, fly cells expressing L^d + B7.1 + ICAM-1", "setting": "[1]; APC L^d + B7.1 + ICAM-1", "value": 158.6, "unit": "cpm × 10^3"}, {"measurement": "IL-2 Production (Day 2) ^3HTdR incorporation, fly cells expressing L^d + ICAM-1", "setting": "[1]; APC L^d + ICAM-1", "value": 0.2, "unit": "cpm × 10^3"}, {"measurement": "IL-2 Production (Day 2) ^3HTdR incorporation, L^d + B7.1 combined with L^d + ICAM-1", "setting": "[1]; mixture of two APC lines", "value": 0.5, "unit": "cpm × 10^3"}, {"measurement": "induction of CD69 and CD25 expression", "setting": "[2]", "value": "low, but significant"}, {"measurement": "proliferative response", "setting": "[3]; L^d.B7 and L^d.ICAM APC", "value": "< 100", "unit": "cpm"}, {"measurement": "proliferative response", "setting": "[3]; L^d.B7.1CAM APC", "value": "> 10,000 cpm"}, {"measurement": "effect of high peptide dose on day 3 proliferative response", "setting": "[3]; 10 μM peptide, L^d.B7.1CAM APC", "value": "inhibited"}, {"measurement": "proliferation of 2C CD8+ cells", "setting": "[3]; Drosophila cells with L^d alone, no exogenous lymphokines", "value": "failed"}, {"measurement": "lowest peptide dose with clearly apparent day 3 proliferative response", "setting": "[3]; L^d.B7.1CAM APC, no IL-2", "value": "≤ 10", "unit": "pM"}, {"measurement": "peptide concentration giving maximal day 3 proliferative response", "setting": "[3]; L^d.B7.1CAM APC, no IL-2", "value": 100, "unit": "nM"}, {"measurement": "Proliferation (Day 3) ^3HTdR incorporation, fly cells expressing L^d", "setting": "[4]; APC L^d", "value": 0.2, "unit": "cpm × 10^3"}, {"measurement": "Proliferation (Day 3) ^3HTdR incorporation, fly cells expressing L^d + B7.1", "setting": "[4]; APC L^d + B7.1", "value": 60.9, "unit": "cpm × 10^3"}, {"measurement": "Proliferation (Day 3) ^3HTdR incorporation, fly cells expressing L^d + B7.1 + ICAM-1", "setting": "[4]; APC L^d + B7.1 + ICAM-1", "value": 263.7, "unit": "cpm × 10^3"}, {"measurement": "Proliferation (Day 3) ^3HTdR incorporation, fly cells expressing L^d + ICAM-1", "setting": "[4]; APC L^d + ICAM-1", "value": 73.9, "unit": "cpm × 10^3"}, {"measurement": "Proliferation (Day 3) ^3HTdR incorporation, L^d + B7.1 combined with L^d + ICAM-1", "setting": "[4]; mixture of two APC lines", "value": 132.9, "unit": "cpm × 10^3"}, {"measurement": "proliferative response on Day 3", "setting": "[5]", "value": "80,000 cpm"}, {"measurement": "affinity for 2C TCR molecules", "setting": "[6]", "value": "2e+07", "unit": "M⁻¹"}, {"measurement": "lysis of target cells in the presence of peptide", "setting": "[7]", "value": "observed"}, {"measurement": "enrichment in specific T-cells after 12 days", "setting": "[8]; start 1/99", "value": 43, "unit": "times"}, {"measurement": "cells expressing the 2C T-cell receptor (2C+) at day 12", "setting": "[8]; start 1/99 2C+/total CD8+, immobilized L^d and anti-CD28, IL-2 from day 2", "value": 43, "unit": "%"}]}
